Assay results as given in PMC10541456, “A phase I, single‐center, open‐label study to investigate the absorption, distribution, metabolism and excretion of encorafenib following a single oral dose of 100 mg [ ^14C] encorafenib in healthy male subjects” (Pharmacology Research & Perspectives, 2023).
Values joined by “and” are separate entries in the source; they are usually repeats but may differ in a detail not shown here. Equal values may be shown once.

How the values were obtained:
CYP3A4 = tested on: CYP3A4; design: method as in earlier work; conditions: cited from earlier work
[1] = Stability in simulated gastric and intestinal fluid; assay type: in vitro ADME; conditions: 37°C, relative to time = 0 h
Experimental: Simulated gastric fluid (SGF) was generated by mixing 2.0 g of sodium chloride and 3.2 g of purified pepsin, which is derived from porcine stomach mucosa, with an activity of 800 to 2500 units per mg of protein, in 7.0 mL of hydrochloric acid and sufficient water to make 1000 mL. The final test solution has a pH of about 1.2. Simulated intestinal fluid (SIF) was generated by dissolving 6.8 g of monobasic potassium phosphate in 250 mL of water and adding 77 mL of 0.2 N sodium hydroxide and 500 mL of water. To this mixture, 10.0 g of pancreatin was added and the solution pH was adjusted with either 0.2 N sodium hydroxide or 0.2 N hydrochloric acid to a pH of 6.8 ± 0.1 and diluted with water to a final volume of 1000 mL. Encorafenib was dissolved in SGF (100 μM final encorafenib concentration) and incubated for 1 h or SIF (1 μM final encorafenib concentration) for 3 h. Dilutions are prepared in HPLC vials by combining 20 μL of the test compound in DMSO with 180 μL of the specified assay media. Separate dilutions are prepared for each time point per media. The media is mixed by repeated pipetting, vortexed and incubated at 37°C. At the specified time period and equal volume of cold ACN is added to the vial to precipitate the protein and quench any enzymatic activity. […] Stability is calculated as % remaining relative to the T = 0 peak area.

[2] = Mass balance: excretion of radioactivity in urine and feces (LSC); assay type: in vivo, human
Experimental: This study (ClinicalTrials.gov ID, NCT01436656) was a single‐center, open‐label study to investigate the ADME of encorafenib after a single oral administration of 100 mg (90 μCi) [^14C] encorafenib in healthy male subjects. A total of four evaluable subjects were enrolled and dosed. The study consisted of a screening period, a baseline period, a single dose treatment and a 96 h post‐dose observation period. A safety follow‐up assessment by phone was conducted 30 days after administration of 100 mg (90 μCi) [^14C] encorafenib. Subjects completed an overnight fast of at least 10 h prior to administration of the study drug. Subjects were discharged from the clinical site provided that the subject's recovery of [^14C] encorafenib‐related radioactivity was at least 90% of the administered dose. The study duration period could be prolonged if the subject's recovery of related radioactivity was less than 90% by the fifth‐day post‐treatment or the subject had two consecutive 24‐h combined urine and fecal collections yielding ≥1% of dose.
Venous blood samples (18 mL/time point) were collected by either direct venipuncture or from an indwelling cannula inserted into a vein of the forearm into tubes containing potassium ethylene diamine tetra acetic acid (K2‐EDTA) at the following times for metabolite characterization, total radioactivity and parent drug analysis: Pre‐dose, 0.5, 1, 1.5, 2, 3, 4, 6, 8, 12, 24, 48, 72, 96, 120 and 144 h post‐dose. Urine samples were collected into pre‐weighed, uniquely labeled containers pre‐dose (before drug administration) and at the following intervals: 0–4, 4–8, 8–24, 24–48, 48–72, 72–96, 96–120 and 120–144 h post‐dose. Feces samples were collected quantitatively into uniquely labeled, polypropylene containers pre‐dose (before drug administration) and individually until 144 h post‐dose. Urine and feces samples were frozen at −20°C and blood samples at −70°C.
Analysis of total radioactivity data in plasma, blood, feces, and urine was performed by Covance Laboratories Inc. All sample combustions were performed in a Model 307 Sample Oxidizer (Packard Instrument Company) and the resulting ^14CO2 was trapped in a mixture of Perma Fluor™ (Perkin Elmer) and Carbo Sorb® (Perkin Elmer). Oxidation efficiency was evaluated on each day of sample combustion by analyzing a commercial radiolabeled standard both directly in a scintillation cocktail and by oxidation. […] EcoLite™(+) scintillation cocktail was used for samples analyzed directly. All samples were analyzed for radioactivity in Model 2900TR or 2910TR liquid scintillation counters (Packard Instrument Company) for at least 5 min or 100 000 counts. […] All samples were analyzed in duplicate or triplicate, as applicable, if sample size allowed. If results from sample replicates (calculated as ^14C disintegrations per minute (dpm)/g sample) differed by more than 10% from the mean value and sample aliquots had radioactivity greater than 200 dpm, the sample was re‐homogenized or remixed and reanalyzed (if the sample size permitted).
Blood samples were mixed and duplicate aliquots of each (approximately 0.4 g) were combusted and analyzed by liquid scintillation […]. Plasma and urine samples were separately mixed and duplicate weighed aliquots of each (approximately 0.4 g for plasma and 0.2 g for urine) were analyzed directly by LSC. […] Feces samples were analyzed individually (samples were not combined by interval) and the weight of each individual sample was recorded. […]

[3] = mean, through last collection interval (144 h)

SMILES: COC(=O)N[C@@H](C)CNc1nccc(-c2cn(C(C)C)nc2-c2cc(Cl)cc(NS(C)(=O)=O)c2F)n1 [encorafenib]
- Contribution of CYP3A4 to metabolism (CYP3A4): 83%
- Percentage remaining in SIF with pancreatin ([1]; 3-h incubation, 1 μM, pH 6.8): approximately 97%
- Percentage remaining in SGF with pepsin ([1]; 1 h incubation, 100 μM, pH about 1.2): approximately 101%
- Fraction of oral absorption (Fa) ([2]; estimated from urine radioactivity plus fecal metabolites, assumes stability in feces and GI tract): ≥ 86%
- Mass balance (total radioactivity recovered) ([2]; mean ± SD of four subjects, by end of Day 6 (144 h post-dose)): 94.5 ± 0.63 % dose
- Radioactivity recovered in feces [2, 3]: 47.2 % of the dose
- Radioactivity recovered in urine [2, 3]: 47.2 % of the dose and 47 % of the dose
- Overall recovery of radioactivity in the excreta, in all four subjects ([2]; single oral 100 mg [14C] encorafenib, urine + feces, bound holding for each subject): ≥ 93.9% and > 90%
